The source of these data is US7645740B2, “Peptide sequence found in Laminin 5 for treating skin impairments” (Laboratoires d'Anjou Centre National de la Recherche …, priority 2004, dated 2010).

The assay relates to NHK-old (keratinocytes from elderly individuals). The assay is described as follows: Cell adhesion of NHK-old to immobilized peptide. Type of assay: cell-based, human. The conditions noted are these: 0 to 5 micrograms per well, 1 hour 37° C. On the procedure:
Dose-dependent cell adhesion of NHK-10 years versus NHK-71 years (A) and NHK-11 years versus NHK-60 years (B) peptides TALRIRATYHEY. The peptides were immobilized in 96-well plates at the concentrations given on the abscissa. 3.5×10^4 (A) cells and 4.3×10^4 (B) cells were deposited in each well and plates were incubated at 37° C. for 1 hour. After washing, attached cells were fixed and cell adhesion was measured as described in the methodology section (C). Cells were observed by phase contrast microscopy then photographed. Bar=50 μm.
In order to obtain keratinocytes originating from biopsies taken from young and old individuals and taken from the same anatomical site, the inventors conducted a study of facial skin biopsies. The area of the face situated behind the ears was chosen in order to study only intrinsic aging and to overcome the effects of photo-induced aging. Surgery waste from cosmetic surgery (face lifts) in older individuals and surgery waste from detached ears in young children was collected. It is essential to use biopsies collected on the same day as surgery was performed in order to quickly place the epidermal keratinocytes in culture. Cells from biopsies on elderly individuals (60, 63 and 71 years) and young individuals (8, 10 and 11 years) were used for this study. The keratinocytes were obtained by means of the technique described by Boyce and Ham, 1985. […]

For the sequence “TALRIRATYGEY (Human laminin 5) [Peptide 1]”, the “cell adhesion to immobilized peptide” value is “triggered dose-dependent cell adhesion”.
